Laboratory results: PubChem BioAssay AID2060892 (Molecular Pharmacology Branch, DTP, NCI, 2025)

Test system: HOP-62 complex spheroids with HUVEC/MSC, viability
Assay: Anticancer human tumor HOP-62 cell line growth inhibition [RAS];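 also: spheroids exposed to agents for seven days before readout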;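 as to viability, T/C: 100% = DMSO vehicle control viability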
Conditions: for viability, T/C: stronger effect = lower value
Outline: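 Agents were tested in combination matrices in half-log decrements from a top concentration at or near clinical Cmax (10 microM if undetermined). Targets were multi-cell spheroids of tumour lines plus HUVEC and MSC stromal cells.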

Question: For `C=CC(=O)N1CCN(c2nc(OCC3CCCN3C)nc3c(F)c(-c4nc(N)cc(C)c4C(F)(F)F)c(Cl)cc23)C(C)C1` (configuration not stated), which viability, T/C (compound 0.01 µM, compound 0.0316 µM) is on record?
Answer: Its viability, T/C is 66.5%.

Question: What about the viability, T/C (compound 0.01 µM, compound 0.1 µM) of the same compound?
Answer: The viability, T/C was 64.5%.

Question: What about the viability, T/C (compound 0.01 µM, compound 0.316 µM) of the same compound?
Answer: Its viability, T/C is 71%.

Question: And the viability, T/C (compound 0.01 µM, compound 1 µM)?
Answer: The viability, T/C was 61.3%.

Question: And the viability, T/C (compound 0.0316 µM, compound 0.00316 µM)?
Answer: Its viability, T/C is 68.3%.

Question: What about the viability, T/C (compound 0.0316 µM, compound 0.01 µM) of the same compound?
Answer: Its viability, T/C is 62.3%.

Question: And the viability, T/C (compound 0.0316 µM, compound 0.1 µM)?
Answer: The viability, T/C was 66.5%.

Question: What about the viability, T/C (compound 0.0316 µM, compound 0.316 µM) of the same compound?
Answer: Its viability, T/C is 64%.

Question: What about the viability, T/C (compound 0.0316 µM, compound 1 µM) of the same compound?
Answer: The viability, T/C was 64.2%.

Question: And the viability, T/C (compound 0.0316 µM)?
Answer: Its viability, T/C is 67.5%.

Question: What about the viability, T/C (compound 0.1 µM, compound 0.00316 µM) of the same compound?
Answer: Its viability, T/C is 59.4%.

Question: And the viability, T/C (compound 0.1 µM, compound 0.01 µM)?
Answer: Its viability, T/C is 63.4%.

Question: What about the viability, T/C (compound 0.1 µM, compound 0.0316 µM) of the same compound?
Answer: The viability, T/C was 57.5%.

Question: What about the viability, T/C (compound 0.1 µM, compound 0.316 µM) of the same compound?
Answer: Its viability, T/C is 66.9%.

Question: And the viability, T/C (compound 0.1 µM, compound 1 µM)?
Answer: Its viability, T/C is 62.5%.

Question: And the viability, T/C (compound 0.1 µM)?
Answer: Its viability, T/C is 64.9%.

Question: What about the viability, T/C (compound 0.316 µM, compound 0.00316 µM) of the same compound?
Answer: Its viability, T/C is 69.2%.

Question: What about the viability, T/C (compound 0.316 µM, compound 0.01 µM) of the same compound?
Answer: Its viability, T/C is 68%.

Question: What about the viability, T/C (compound 0.316 µM, compound 0.0316 µM) of the same compound?
Answer: The viability, T/C was 59.4%.

Question: And the viability, T/C (compound 0.316 µM, compound 0.1 µM)?
Answer: The viability, T/C was 66%.

Question: And the viability, T/C (compound 0.316 µM, compound 1 µM)?
Answer: Its viability, T/C is 68%.

Question: What about the viability, T/C (compound 0.316 µM) of the same compound?
Answer: Its viability, T/C is 66.3%.

Question: And the viability, T/C (compound 1 µM, compound 0.00316 µM)?
Answer: Its viability, T/C is 76.3%.

Question: What about the viability, T/C (compound 1 µM, compound 0.01 µM) of the same compound?
Answer: Its viability, T/C is 65.6%.

Question: What about the viability, T/C (compound 1 µM, compound 0.0316 µM) of the same compound?
Answer: Its viability, T/C is 64%.

Question: And the viability, T/C (compound 1 µM, compound 0.1 µM)?
Answer: The viability, T/C was 66.4%.

Question: What about the viability, T/C (compound 1 µM, compound 0.316 µM) of the same compound?
Answer: The viability, T/C was 65%.

Question: And the viability, T/C (compound 1 µM)?
Answer: Its viability, T/C is 67.3% [middle of 13 runs].

Question: What about the IC50 (compound alone, run of 07/15/2024) of the same compound?
Answer: Its IC50 is > 1000 nM.

Question: What about the IC50 (curve of compound) of the same compound?
Answer: Its IC50 is > 1000 nM.

Question: Which IC50 (curve of first compound, second compound 0.00316 µM) does the source give for `C=CC(=O)Nc1cc(Nc2nccc(-c3cn(C)c4ccccc34)n2)c(OC)cc1N(C)CCN(C)C` + C=CC(=O)N1CCN(c2nc(OCC3CCCN3C)nc3c(F)c(-c4nc(N)cc(C)c4C(F)(F)F)c(Cl)cc23)C(C)C1 here?
Answer: Its IC50 is 628 nM.

Question: And the IC50 (curve of first compound, second compound 0.01 µM)?
Answer: The IC50 was 372 nM.

Question: What about the IC50 (curve of first compound, second compound 0.0316 µM) of the same compound?
Answer: Its IC50 is 131 nM.

Question: And the IC50 (curve of first compound, second compound 0.1 µM)?
Answer: Its IC50 is 280 nM.

Question: And the IC50 (curve of first compound, second compound 0.316 µM)?
Answer: The IC50 was 308 nM.

Question: And the IC50 (curve of first compound, second compound 1 µM)?
Answer: Its IC50 is 333 nM.

Question: What about the viability, T/C (second compound 0.00316 µM, first compound 0.00316 µM) of the same compound?
Answer: Its viability, T/C is 82.4%.

Question: What about the viability, T/C (second compound 0.00316 µM, first compound 0.01 µM) of the same compound?
Answer: Its viability, T/C is 74.9%.

Question: What about the viability, T/C (second compound 0.00316 µM, first compound 0.0316 µM) of the same compound?
Answer: Its viability, T/C is 72.5%.

Question: What about the viability, T/C (second compound 0.00316 µM, first compound 0.1 µM) of the same compound?
Answer: Its viability, T/C is 74.1%.

Question: What about the viability, T/C (second compound 0.00316 µM, first compound 0.316 µM) of the same compound?
Answer: The viability, T/C was 64.1%.

Question: And the viability, T/C (second compound 0.00316 µM, first compound 1 µM)?
Answer: Its viability, T/C is 40.5%.

Question: What about the viability, T/C (second compound 0.01 µM, first compound 0.00316 µM) of the same compound?
Answer: The viability, T/C was 74%.

Question: What about the viability, T/C (second compound 0.01 µM, first compound 0.01 µM) of the same compound?
Answer: The viability, T/C was 66.6%.

Question: And the viability, T/C (second compound 0.01 µM, first compound 0.0316 µM)?
Answer: The viability, T/C was 65.7%.

Question: What about the viability, T/C (second compound 0.01 µM, first compound 0.1 µM) of the same compound?
Answer: Its viability, T/C is 66.4%.

Question: And the viability, T/C (second compound 0.01 µM, first compound 0.316 µM)?
Answer: Its viability, T/C is 52.9%.

Question: What about the viability, T/C (second compound 0.01 µM, first compound 1 µM) of the same compound?
Answer: Its viability, T/C is 29.4%.

Question: What about the viability, T/C (second compound 0.0316 µM, first compound 0.00316 µM) of the same compound?
Answer: The viability, T/C was 74.9%.

Question: What about the viability, T/C (second compound 0.0316 µM, first compound 0.01 µM) of the same compound?
Answer: The viability, T/C was 69.9%.

Question: And the viability, T/C (second compound 0.0316 µM, first compound 0.0316 µM)?
Answer: The viability, T/C was 52.6%.

Question: What about the viability, T/C (second compound 0.0316 µM, first compound 0.1 µM) of the same compound?
Answer: The viability, T/C was 51.5%.

Question: What about the viability, T/C (second compound 0.0316 µM, first compound 0.316 µM) of the same compound?
Answer: The viability, T/C was 51.3%.

Question: What about the viability, T/C (second compound 0.0316 µM, first compound 1 µM) of the same compound?
Answer: Its viability, T/C is 35.2%.

Question: What about the viability, T/C (second compound 0.1 µM, first compound 0.00316 µM) of the same compound?
Answer: The viability, T/C was 65.7%.

Question: What about the viability, T/C (second compound 0.1 µM, first compound 0.01 µM) of the same compound?
Answer: Its viability, T/C is 66.1%.

Question: What about the viability, T/C (second compound 0.1 µM, first compound 0.0316 µM) of the same compound?
Answer: The viability, T/C was 62.7%.

Question: What about the viability, T/C (second compound 0.1 µM, first compound 0.1 µM) of the same compound?
Answer: Its viability, T/C is 56.4%.

Question: What about the viability, T/C (second compound 0.1 µM, first compound 0.316 µM) of the same compound?
Answer: The viability, T/C was 50.9%.

Question: And the viability, T/C (second compound 0.1 µM, first compound 1 µM)?
Answer: Its viability, T/C is 29.4%.

Question: What about the viability, T/C (second compound 0.316 µM, first compound 0.00316 µM) of the same compound?
Answer: The viability, T/C was 59.2%.

Question: And the viability, T/C (second compound 0.316 µM, first compound 0.01 µM)?
Answer: Its viability, T/C is 58.1%.

Question: What about the viability, T/C (second compound 0.316 µM, first compound 0.0316 µM) of the same compound?
Answer: The viability, T/C was 59.2%.

Question: And the viability, T/C (second compound 0.316 µM, first compound 0.1 µM)?
Answer: The viability, T/C was 57.9%.

Question: And the viability, T/C (second compound 0.316 µM, first compound 0.316 µM)?
Answer: Its viability, T/C is 48.5%.

Question: And the viability, T/C (second compound 0.316 µM, first compound 1 µM)?
Answer: Its viability, T/C is 33.8%.

Question: And the viability, T/C (second compound 1 µM, first compound 0.00316 µM)?
Answer: Its viability, T/C is 63.9%.

Question: And the viability, T/C (second compound 1 µM, first compound 0.01 µM)?
Answer: Its viability, T/C is 53.5%.

Question: What about the viability, T/C (second compound 1 µM, first compound 0.0316 µM) of the same compound?
Answer: Its viability, T/C is 68.9%.

Question: And the viability, T/C (second compound 1 µM, first compound 0.1 µM)?
Answer: Its viability, T/C is 56.9%.

Question: What about the viability, T/C (second compound 1 µM, first compound 0.316 µM) of the same compound?
Answer: Its viability, T/C is 49.8%.

Question: And the viability, T/C (second compound 1 µM, first compound 1 µM)?
Answer: The viability, T/C was 34.1%.
